Laboratory results published in the NIST ThermoML archive (doi:10.1021/je8004613).

What was measured:
[1] = 101.33 kPa, Liquid; for speed of sound: Pulse-echo method; for mass density: Vibrating tube method
[2] = excess molar enthalpy (molar enthalpy of mixing); xn = mol fraction of the nth substance listed; conditions: 298.15 K, 101 kPa, Liquid

CCCCCCCC [octane]
[1]
Conditions | mass density [kg/m3] | speed of sound [m/s]
288.15 K | 706.58 | 1213.6
293.15 K | 702.57 | 1193
298.15 K | 698.55 | 1171.9
303.15 K | 694.48 | 1151
308.15 K | 690.42 | 1130.3

CCCCCCCC [octane] + CCCCO
[2]
Conditions | excess molar enthalpy [kcal/mol]
x2 = 0.03632 | 0.0772
x2 = 0.0645 | 0.102
x2 = 0.1182 | 0.128
x2 = 0.1568 | 0.137
x2 = 0.2031 | 0.152
x2 = 0.2488 | 0.158
x2 = 0.299 | 0.163
x2 = 0.345 | 0.164
x2 = 0.4028 | 0.163
x2 = 0.4499 | 0.16
x2 = 0.5029 | 0.152
x2 = 0.6034 | 0.134
x2 = 0.6988 | 0.112
x2 = 0.7979 | 0.0817
x2 = 0.9005 | 0.0435
x2 = 0.9493 | 0.0225
